Data reported in US20250066350A1, “AROMATIC HETEROCYCLE-SUBSTITUTED COMPOUNDS, AND PREPARATION METHOD THEREFOR AND USE THEREOF” (Innovstone Therapeutics Limited, priority 2021, published 2025).

Biological target: ATR enzyme (Homo sapiens (Human), UniProt Q13535)
Assay: Inhibitory effect on ATR enzyme (HTRF, phospho-P53)
Format: biochemical
Conditions: 90 minutes incubation, 150 nM ATP final; read-out: IC50 for ATR enzyme inhibition
Protocol: Test Example 1. Inhibitory Effect of Compounds of the Present Invention on ATR Enzyme
The following method is used to determine the inhibitory effect of the compounds of the present invention on the ATR enzyme. The experimental method is briefly described as follows:
1. ATR enzyme (Eurofins Pharma Discovery Services, 14-953M)
2. GST-tagged P53 protein (Eurofins Pharma Discovery Services, 14-952M)
15 nM ATR enzyme, 80 nM P53 protein, 300 nM ATP (the final concentrations were 40 nM and 150 nM, respectively), and small molecule compounds of various concentrations (the final concentrations (nM) of the ten points were 2985.0, 895.5, 298.5, 110.56, 33.17, 11.06, 4.09, 1.23, 0.41 and 0.15, respectively, and the final dimethyl sulfoxide concentration was 0.498%) were mixed and incubated at room temperature for 90 minutes. 10 μL of 2× cocktail buffer was added to the mixture of ATR, compound and substrate in the assay plate (anti-phospho-p53-Eu and anti-GST-d2 were diluted in the assay buffer). The resulting mixture was centrifuged at 1000 rpm for 30 seconds, and incubated overnight at 4° C. in the dark (a total of 20 μl in each well). The FRET signal (endpoint) was measured in the Envision instrument (HTRF 665/612 ratio was calculated at 665 nm emission and 612 nm emission). Data were processed using GraphPad software.
The inhibitory activity of the compounds of the present invention on the ATR enzyme can be determined by the test described above, and the measured IC50 values are shown in Table 1.

Chain of ATR enzyme (Q13535 whole entry): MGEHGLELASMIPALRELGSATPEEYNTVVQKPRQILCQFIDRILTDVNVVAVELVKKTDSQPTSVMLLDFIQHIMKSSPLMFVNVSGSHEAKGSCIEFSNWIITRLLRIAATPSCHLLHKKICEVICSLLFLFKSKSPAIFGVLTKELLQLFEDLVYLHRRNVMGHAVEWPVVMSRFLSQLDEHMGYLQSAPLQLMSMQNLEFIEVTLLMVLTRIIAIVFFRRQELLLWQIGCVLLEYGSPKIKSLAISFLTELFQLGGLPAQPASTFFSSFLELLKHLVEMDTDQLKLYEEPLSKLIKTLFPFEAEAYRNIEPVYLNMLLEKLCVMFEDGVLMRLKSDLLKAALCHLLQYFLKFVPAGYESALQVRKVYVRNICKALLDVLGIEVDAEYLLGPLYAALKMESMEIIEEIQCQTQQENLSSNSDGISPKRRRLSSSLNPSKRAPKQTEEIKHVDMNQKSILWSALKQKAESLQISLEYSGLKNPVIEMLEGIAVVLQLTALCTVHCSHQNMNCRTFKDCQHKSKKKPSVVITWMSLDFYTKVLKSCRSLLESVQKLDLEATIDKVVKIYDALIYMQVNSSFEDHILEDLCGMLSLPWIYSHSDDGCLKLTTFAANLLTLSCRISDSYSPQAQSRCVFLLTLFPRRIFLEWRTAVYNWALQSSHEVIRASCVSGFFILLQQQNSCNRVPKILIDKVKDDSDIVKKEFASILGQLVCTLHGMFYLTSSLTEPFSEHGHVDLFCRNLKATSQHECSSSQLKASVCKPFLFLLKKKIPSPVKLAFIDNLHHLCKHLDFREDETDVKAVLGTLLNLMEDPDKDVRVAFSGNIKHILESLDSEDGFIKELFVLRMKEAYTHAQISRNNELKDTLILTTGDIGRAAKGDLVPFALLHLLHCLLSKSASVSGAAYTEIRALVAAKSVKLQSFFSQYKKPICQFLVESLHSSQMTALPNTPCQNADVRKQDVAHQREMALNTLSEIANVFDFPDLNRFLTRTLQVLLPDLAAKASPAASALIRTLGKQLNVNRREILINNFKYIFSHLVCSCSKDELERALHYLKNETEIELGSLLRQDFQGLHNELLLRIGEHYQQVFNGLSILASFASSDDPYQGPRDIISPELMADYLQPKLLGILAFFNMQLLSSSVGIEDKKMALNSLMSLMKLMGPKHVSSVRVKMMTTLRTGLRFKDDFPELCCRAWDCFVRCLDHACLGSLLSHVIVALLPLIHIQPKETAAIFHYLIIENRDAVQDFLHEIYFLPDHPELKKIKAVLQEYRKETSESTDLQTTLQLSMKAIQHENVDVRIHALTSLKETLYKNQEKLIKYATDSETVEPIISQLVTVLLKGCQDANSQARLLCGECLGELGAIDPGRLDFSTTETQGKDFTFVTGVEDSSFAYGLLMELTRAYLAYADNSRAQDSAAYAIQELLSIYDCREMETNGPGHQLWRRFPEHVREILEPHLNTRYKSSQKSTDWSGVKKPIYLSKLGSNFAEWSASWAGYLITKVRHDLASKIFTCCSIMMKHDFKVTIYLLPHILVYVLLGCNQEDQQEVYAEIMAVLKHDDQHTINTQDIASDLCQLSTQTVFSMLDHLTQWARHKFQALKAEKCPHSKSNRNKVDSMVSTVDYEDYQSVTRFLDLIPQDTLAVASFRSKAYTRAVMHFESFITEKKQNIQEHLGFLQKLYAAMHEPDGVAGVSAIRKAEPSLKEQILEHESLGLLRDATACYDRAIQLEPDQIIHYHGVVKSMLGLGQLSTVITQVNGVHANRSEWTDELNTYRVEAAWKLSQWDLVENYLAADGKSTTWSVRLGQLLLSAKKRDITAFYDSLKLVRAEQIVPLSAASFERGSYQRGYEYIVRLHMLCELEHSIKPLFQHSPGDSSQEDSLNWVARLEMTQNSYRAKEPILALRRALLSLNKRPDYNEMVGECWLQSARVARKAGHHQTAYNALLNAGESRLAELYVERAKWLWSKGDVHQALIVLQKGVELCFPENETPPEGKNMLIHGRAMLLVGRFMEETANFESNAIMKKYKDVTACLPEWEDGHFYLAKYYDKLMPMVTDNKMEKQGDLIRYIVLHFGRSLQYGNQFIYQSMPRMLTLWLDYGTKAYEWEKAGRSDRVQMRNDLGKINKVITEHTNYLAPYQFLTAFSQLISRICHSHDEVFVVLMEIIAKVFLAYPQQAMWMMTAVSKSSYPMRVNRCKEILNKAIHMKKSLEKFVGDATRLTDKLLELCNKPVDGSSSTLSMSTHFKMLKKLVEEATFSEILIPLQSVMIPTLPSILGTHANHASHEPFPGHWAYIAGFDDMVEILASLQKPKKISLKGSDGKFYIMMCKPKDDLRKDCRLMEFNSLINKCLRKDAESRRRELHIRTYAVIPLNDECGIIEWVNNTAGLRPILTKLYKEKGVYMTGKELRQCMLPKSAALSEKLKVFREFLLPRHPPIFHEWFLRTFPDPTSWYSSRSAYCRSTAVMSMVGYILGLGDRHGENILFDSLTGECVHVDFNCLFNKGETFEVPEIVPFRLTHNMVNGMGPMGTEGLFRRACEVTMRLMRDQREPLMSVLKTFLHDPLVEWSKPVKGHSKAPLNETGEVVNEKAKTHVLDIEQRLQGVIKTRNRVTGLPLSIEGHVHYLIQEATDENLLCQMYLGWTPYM
Chain of ATR enzyme (Q8WXE1 whole entry partner): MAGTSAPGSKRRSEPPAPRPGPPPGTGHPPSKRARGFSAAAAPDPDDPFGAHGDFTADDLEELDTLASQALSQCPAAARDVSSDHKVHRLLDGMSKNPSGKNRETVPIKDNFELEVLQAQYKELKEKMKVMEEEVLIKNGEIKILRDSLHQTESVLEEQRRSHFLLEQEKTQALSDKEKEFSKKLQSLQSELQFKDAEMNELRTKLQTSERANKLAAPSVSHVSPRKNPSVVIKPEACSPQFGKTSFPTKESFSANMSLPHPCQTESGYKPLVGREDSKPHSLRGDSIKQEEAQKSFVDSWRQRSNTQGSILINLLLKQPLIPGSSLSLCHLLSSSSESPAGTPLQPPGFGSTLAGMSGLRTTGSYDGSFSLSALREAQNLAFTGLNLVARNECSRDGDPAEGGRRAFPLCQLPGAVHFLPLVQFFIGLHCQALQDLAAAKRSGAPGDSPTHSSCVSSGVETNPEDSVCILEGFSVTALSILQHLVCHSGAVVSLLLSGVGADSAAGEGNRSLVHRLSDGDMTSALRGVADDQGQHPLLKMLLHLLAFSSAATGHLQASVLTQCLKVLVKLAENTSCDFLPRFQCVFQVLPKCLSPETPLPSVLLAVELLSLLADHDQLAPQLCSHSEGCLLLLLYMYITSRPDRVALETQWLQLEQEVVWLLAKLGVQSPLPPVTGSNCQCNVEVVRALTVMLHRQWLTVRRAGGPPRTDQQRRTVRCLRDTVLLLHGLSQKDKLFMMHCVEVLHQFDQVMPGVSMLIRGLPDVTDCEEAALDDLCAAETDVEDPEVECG

| Structure (SMILES) | IC50 [nM] |
| --- | --- |
| C[C@@H]1COCCN1c1cc(C#CC2(O)CCN(c3cccc(F)c3)CC2)c2cnn(-c3ccn[nH]3)c2n1 [Compound 12, (R)-1-(3-fluorophenyl)-4-((6-(3-methylmorpholinyl)-1-(1H-pyrazolyl-5-yl)-1H-pyrazolyl[3,4-b]pyridin-4-yl)ethynyl)piperidin-4-ol] | 10 to 50 |
| C[C@@H]1COCCN1c1cc(C#CC2(O)CCC3(CCOCC3)CC2)c2cnn(-c3ccn[nH]3)c2n1 [Compound 14, (R)-9-((6-(3-methylmorpholinyl)-1-(1H-pyrazol-5-yl)-1H-pyrazole[3,4-b]pyridin-4-yl)ethynyl)-3-oxaspiro[5.5]undecan-9-ol] | 10 to 50 |
| C#Cc1cc(N2CCOC[C@H]2C)nc2c1cnn2-c1cc[nH]n1 [Example 17] | 10 to 50 |
| C[C@@H]1COCCN1c1cc(C#CCN(C)C)c2cnn(-c3cc[nH]n3)c2n1 [Example 18, (R)-N, N-Dimethyl-3-(6-(3-methylmorpholine)-1-(1H-pyrazol-3-yl)-1H-pyrazoline[3,4-b]pyridin-4-yl)propyl-2-yn-1-amine] | 10 to 50 |
| C[C@@H]1COCCN1c1cc(-c2ccc(N3C(=O)CCCC3CO)cc2)c2cnn(-c3cc[nH]n3)c2n1 (stereo partly shown) [Example 60] | ≤ 10 |
| C[C@@H]1COCCN1c1cc(C#Cc2ccnc3[nH]ccc23)c2cnn(-c3cc[nH]n3)c2n1 [Example 77] | 10 to 50 |
| C[C@@H]1COCCN1c1cc(C#Cc2c[nH]cn2)c2cnn(-c3cc[nH]n3)c2n1 [Example 78] | ≤ 10 |
| CC(=O)N1CCC(C#Cc2cc(N3CCOC[C@H]3C)nc3c2cnn3-c2cc[nH]n2)C1 (stereo partly shown) [Example 80] | 10 to 50 |
| C[C@@H]1COCCN1c1cc(C#CC2(O)COC2)c2cnn(-c3cc[nH]n3)c2n1 [Example 84] | ≤ 10 |
| C[C@@H]1COCCN1c1cc(C#CC(=O)N2CC(O)C2)c2cnn(-c3cc[nH]n3)c2n1 [Example 86] | 10 to 50 |
| C[C@@H]1COCCN1c1cc(-c2ccc(NC(=O)CCO)cc2)c2cnn(-c3cc[nH]n3)c2n1 [Example 152] | ≤ 10 |
| C[C@@H]1COCCN1c1cc(-c2ccc(NC(=O)C3CNC3)cc2)c2cnn(-c3cc[nH]n3)c2n1 [Example 156] | ≤ 10 |
| C[C@@H]1COCCN1c1cc(-c2ccc(NC(=O)NC3CC4CCC(C3)N4)cc2)c2cnn(-c3cc[nH]n3)c2n1 (stereo partly shown) [Example 231] | ≤ 10 |

Results, then the compound that gave them:

| IC50 [nM] | Structure (SMILES) |
| --- | --- |
| ≤ 10 | Cc1cc(-c2cc(N3CCOC[C@H]3C)nc3c2cnn3-c2ccn[nH]2)cc(C)c1N(C)C(=O)c1ccncc1 [Example 184] |
| ≤ 10 | C[C@@H]1COCCN1c1cc(-c2ccc(N(C)C(=O)N3CCCC3)cc2F)c2cnn(-c3cc[nH]n3)c2n1 [Example 192] |
| ≤ 10 | C#CC1CC=C(c2cc(N3CCOC[C@H]3C)nc3c2cnn3-c2cc[nH]n2)CC1 (stereo partly shown) [Example 201] |
| ≤ 10 | C#CC1CCC(c2cc(N3CCOC[C@H]3C)nc3c2cnn3-c2ccn[nH]2)CC1 (stereo partly drawn) [Example 202, (R)-4-(4-(4-ethynylcyclohexyl)-1-(1H-pyrazol-5-yl)-1H-pyrazolo[3,4-b]pyridin-6-yl)-3-methylmorpholine] |
| ≤ 10 | C[C@@H]1COCCN1c1cc(-c2ccc(N3CC4(CCN(Cc5ccccc5)C4)CC3=O)cc2)c2cnn(-c3cc[nH]n3)c2n1 (stereo partly shown) [Example 203] |
| 10 to 50 | C[C@@H]1COCCN1c1cc(C#CCN2CC3(CNC3)C2)c2cnn(-c3cc[nH]n3)c2n1 [Example 205] |
| ≤ 10 | C[C@@H]1COCCN1c1cc(C#CC2CCCOC2)c2cnn(-c3ccn[nH]3)c2n1 (stereo partly shown) [Example 210] |
| ≤ 10 | C[C@@H]1COCCN1c1cc(-c2ccc(N3CCCC3=O)cc2)c2cnn(-c3cc[nH]n3)c2n1 [Example 212] |
| 10 to 50 | CC(=O)Nc1ccccc1-c1cc(N2CCOC[C@H]2C)nc2c1cnn2-c1cc[nH]n1 [Example 220] |
| ≤ 10 | C[C@@H]1COCCN1c1cc(-c2ccc(N(C)C(=O)N3CCCC3)cc2)c2cnn(-c3cc[nH]n3)c2n1 [Example 223] |
| ≤ 10 | C[C@@H]1COCCN1c1cc(-c2ccc3c(c2)CCCN3C(=O)c2cccnc2)c2cnn(-c3cc[nH]n3)c2n1 [Example 225] |
| 10 to 50 | C[C@@H]1COCCN1c1cc(-c2ccc(N(C)C(=O)N3CCCC3)nc2)c2cnn(-c3cc[nH]n3)c2n1 [Example 227] |
| ≤ 10 | C[C@@H]1COCCN1c1cc(-c2ccc(NC(=O)N3CCCCC3)cc2)c2cnn(-c3cc[nH]n3)c2n1 [Example 229] |
| 10 to 50 | C[C@@H]1COCCN1c1cc(-c2ccc(N(C)C(=O)N3CCCCC3)cc2)c2cnn(-c3cc[nH]n3)c2n1 [Example 230] |
| 10 to 50 | C[C@@H]1COCCN1c1cc(-c2ccc(NC(=O)C34CC5CC(CC(C5)C3)C4)cc2)c2cnn(-c3cc[nH]n3)c2n1 [Example 232] |
| 10 to 50 | COc1cc(-c2cc(N3CCOC[C@H]3C)nc3c2cnn3-c2cc[nH]n2)ncc1NC(=O)N1CCCC1 [Example 247] |
| 10 to 50 | COc1cc(NC(=O)N2CCCC2)ncc1-c1cc(N2CCOC[C@H]2C)nc2c1cnn2-c1cc[nH]n1 [Example 248] |
| ≤ 10 | C[C@@H]1COCCN1c1cc(-c2ccc(NC(=O)N3CCCC3)cn2)c2cnn(-c3cc[nH]n3)c2n1 [Example 249] |
| 10 to 50 | C[C@@H]1COCCN1c1cc(-c2cc(NC(=O)C3CC3)[nH]n2)c2cnn(-c3cc[nH]n3)c2n1 [Example 253] |
| 10 to 50 | C[C@@H]1COCCN1c1cc(N2CC(c3ccnn3C)C2)c2cnn(-c3cc[nH]n3)c2n1 [Example 266] |
| 10 to 50 | C[C@@H]1COCCN1c1cc(N2CC(c3ccn(C)n3)C2)c2cnn(-c3cc[nH]n3)c2n1 [Example 267] |
| 10 to 50 | C[C@@H]1COCCN1c1cc(C2CN(C(=O)NC3CC3)C2)c2cnn(-c3cc[nH]n3)c2n1 [Example 268] |
| ≤ 10 | C[C@@H]1COCCN1c1cc(C2CN(c3ccnn3C)C2)c2cnn(-c3cc[nH]n3)c2n1 [Example 269] |
| ≤ 10 | C#CC1CCC(O)(c2cc(N3CCOC[C@H]3C)nc3c2cnn3-c2cc[nH]n2)C1 (stereo partly shown) [Example 270] |

Tested on: SNU-601 cells
Assay: SNU-601 cell proliferation experiment (CellTiter-Glo, intracellular ATP)
Format: cell-based
Conditions: 120 h; SNU-601 human gastric cancer cells, 5 days; read-out: IC50 for inhibition of SNU-601 cell proliferation
Protocol: The following method is used to evaluate the inhibitory effect of the compounds of the present disclosure on SNU-601 cell proliferation according to the IC50 values by means of detecting the intracellular ATP content. The experimental method is briefly described as follows:
1. SNU-601, human gastric cancer tumor cells (Co-bioer, CBP60507)
SNU-601 cells were cultured in RPMI 1640 medium containing 10% FBS and passaged 2 to 3 times a week at a split ratio of 1:5 or 1:10. During passage, the cells were trypsinized and transferred to a centrifuge tube. The tube was centrifuged at 1000 rpm for 5 minutes, the supernatant medium was discarded, and fresh medium was added to resuspend the cells. 195 μL of cell suspension at a density of 5.128×10^3 cells/mL was added to a 96-well cell culture plate, and 200 μL of complete medium only was added to the periphery wells of the 96-well plate. The culture plate was incubated in an incubator for 24 hours (37° C., 5% CO2).
The sample to be tested was diluted to 2 mM with DMSO, diluted 3-fold serially to 10 concentrations. Blank and control wells were set. 10 μL of the solution containing the compound to be tested prepared in gradient concentrations was added to 50 μL of fresh medium. 5 μL of the above culture medium solution containing the compound was added to the culture plate. The culture plate was incubated in an incubator for 5 days (37° C., 5% CO2). 50 μL of CellTiter-Glo reagent was added to each well of the 96-well cell culture plate after discarding 100 μL/well, and the plate was shaken at room temperature in the dark for 10 min. The chemiluminescent signal values were read in PHERAstar, and data were processed using GraphPad software.
The inhibitory effect of the compounds of the present invention on SNU-601 cell proliferation can be determined by the test described above, and the measured IC50 values are shown in Table 3.

| Structure (SMILES) | IC50 [nM] |
| --- | --- |
| C[C@@H]1COCCN1c1cc(-c2ccc(N3CC4CCC(O4)C3=O)cc2)c2cnn(-c3cc[nH]n3)c2n1 (stereo partly shown) [Example 65] | 10 to 100 |
| CCC(CC)C(=O)Nc1ccc(-c2cc(N3CCOC[C@H]3C)nc3c2cnn3-c2cc[nH]n2)cc1 [Example 151] | 10 to 100 |
| C[C@@H]1COCCN1c1cc(-c2ccc(N3CCCCCC3=O)cc2)c2cnn(-c3cc[nH]n3)c2n1 [Example 153] | 10 to 100 |
| C[C@@H]1COCCN1c1cc(-c2ccc(NC(=O)C3CCOCC3)cc2)c2cnn(-c3cc[nH]n3)c2n1 [Example 155] | 10 to 100 |
| C[C@@H]1COCCN1c1cc(-c2ccc(NC(=O)c3ccccc3)cc2)c2cnn(-c3cc[nH]n3)c2n1 [Example 163] | 10 to 100 |
| C[C@@H]1COCCN1c1cc(-c2ccc(NC(=O)c3ccncn3)cc2)c2cnn(-c3cc[nH]n3)c2n1 [Example 165] | 10 to 100 |

Now from value to compound:

| IC50 [nM] | Structure (SMILES) |
| --- | --- |
| 10 to 100 | C[C@@H]1COCCN1c1cc(-c2ccc(N3CCCCC3=O)nc2)c2cnn(-c3cc[nH]n3)c2n1 [Example 167] |
| 10 to 100 | C[C@@H]1COCCN1c1cc(-c2ccc(N3CCCCC3=O)c(C#N)c2)c2cnn(-c3cc[nH]n3)c2n1 [Example 169] |
| 10 to 100 | C[C@@H]1COCCN1c1cc(-c2ccc3c(c2)CCN3C(=O)c2ccncc2)c2cnn(-c3cc[nH]n3)c2n1 [Example 183] |
| 10 to 100 | C[C@@H]1COCCN1c1cc(-c2ccc(N3CCCCC3=O)c(F)c2)c2cnn(-c3cc[nH]n3)c2n1 [Example 191] |
| 10 to 100 | C[C@@H]1COCCN1c1cc(-c2ccc(NC(=O)c3cccnc3)cc2F)c2cnn(-c3cc[nH]n3)c2n1 [Example 195] |

Same assay, conditions: SNU-601 human gastric cancer cells, 5 days; read-out: IC50 for inhibition of SNU-601 cell proliferation

| Structure (SMILES) | IC50 [nM] |
| --- | --- |
| C[C@@H]1COCCN1c1cc(C#CC2(C#N)CCCNC2)c2cnn(-c3cc[nH]n3)c2n1 (stereo partly shown) [Example 82] | 10 to 100 |
